# Test system: hepatocytes
# Test: Seq-Well scRNA-Seq of hepatocytes after APAP overdose (signature scores, DEG vs untreated)
# Assay type: in vivo, mouse
# Conditions: A6 vs UT
smiles,measurement,value
"CC(=O)Nc1ccc(O)cc1 [APAP, acetaminophen]",Gstz1 pct.1,0.73
same,Gtf2a2 A6logFC,0.2792
same,Gtf2a2 avg_logFC,0.2792
same,Gtf2a2 pct.1,0.379
same,Gtpbp4 avg_logFC,0.4822
same,Gtpbp4 pct.1,0.477
same,Gulo avg_logFC,−0.8017
same,H2-Ab1 avg_logFC,0.461
same,H2-Ab1 pct.1,0.158
same,H2-D1 A6logFC,0.2865
same,H2-D1 avg_logFC,0.2865
same,H2-D1 pct.1,0.766
same,H2-Eb1 avg_logFC,0.3279
same,H2-Eb1 pct.1,0.105
same,H3f3b avg_logFC,0.7029
same,H6pd avg_logFC,0.3437
same,H6pd pct.1,0.623
same,Haao avg_logFC,−0.5912
same,Hacl1 avg_logFC,−0.7069
same,Hagh avg_logFC,−0.674
same,Hba-a1 avg_logFC,0.735
same,Hba-a2 avg_logFC,0.5535
same,Hbb-bs avg_logFC,2.862
same,Hbb-bt avg_logFC,1.43
same,Hdac11 avg_logFC,−0.3368
same,Hdac11 pct.1,0.1
same,Hdlbp avg_logFC,0.3457
same,Hdlbp pct.1,0.737
same,Heatr1 avg_logFC,0.406
same,Heatr1 pct.1,0.291
same,Hebp1 avg_logFC,−0.6354
same,Hectd1 A6logFC,0.308
same,Hectd1 avg_logFC,0.308
same,Hectd1 pct.1,0.547
same,Herc1 A6logFC,0.2562
same,Herc1 avg_logFC,0.2562
same,Herc1 pct.1,0.246
same,Herc4 A6logFC,0.2675
same,Herc4 avg_logFC,0.2675
same,Herc4 pct.1,0.332
same,Herpud1 avg_logFC,−0.4976
same,Herpud1 pct.1,0.535
same,Hes6 avg_logFC,−0.5613
same,Hgd avg_logFC,−0.7586
same,Hibadh avg_logFC,−0.4994
same,Hibadh pct.1,0.542
same,Hic2 avg_logFC,0.2898
same,Hic2 pct.1,0.15
same,Hif1a avg_logFC,0.5169
same,Hilpda avg_logFC,0.7786
same,Hint1 avg_logFC,−0.6739
same,Hint2 avg_logFC,−0.4243
same,Hint2 pct.1,0.425
same,Hipk1 A6logFC,0.2916
same,Hipk1 avg_logFC,0.2916
same,Hipk1 pct.1,0.337
same,Hmgcr A6logFC,0.4167
same,Hmgcr avg_logFC,0.4167
same,Hmgcr pct.1,0.425
same,Hmox1 avg_logFC,1.348
same,Hnf4a avg_logFC,0.8791
same,Hnrnpdl avg_logFC,0.398
same,Hnrnpdl pct.1,0.406
same,Hnrnpu A6logFC,0.3394
same,Hnrnpu avg_logFC,0.3394
same,Hnrnpu pct.1,0.625
same,Hpd avg_logFC,−0.5182
same,Hpgd avg_logFC,−0.3878
same,Hpgd pct.1,0.115
same,Hpn A6logFC,−0.2686
same,Hpn avg_logFC,−0.2686
same,Hpn pct.1,0.406
same,Hpx avg_logFC,−0.3033
same,Hpx pct.1,0.988
same,Hsbp1 A6logFC,−0.2867
same,Hsd3b5 avg_logFC,−1.07
same,Hsd17b13 avg_logFC,0.6808
same,Hsp90ab1 avg_logFC,0.3227
same,Hsp90ab1 pct.1,0.916
same,Hspb8 avg_logFC,0.6339
same,Iah1 A6logFC,−0.293
same,Iah1 avg_logFC,−0.293
same,Iah1 pct.1,0.446
same,Ier5 avg_logFC,0.289
same,Ier5 pct.1,0.134
same,Ifitm3 avg_logFC,−0.4251
same,Ifitm3 pct.1,0.587
same,Igfbp2 avg_logFC,−0.299
same,Igfbp2 pct.1,0.68
same,Iigp1 avg_logFC,0.7688
same,Il1b avg_logFC,0.7429
same,Il1r1 avg_logFC,1.245
same,Il4ra avg_logFC,0.2574
same,Il4ra pct.1,0.248
same,Il6st avg_logFC,0.3168
same,Il6st pct.1,0.411
same,Il13ra1 avg_logFC,0.2785
same,Il13ra1 pct.1,0.294
same,Impad1 A6logFC,0.3227
same,Impad1 avg_logFC,0.3227
same,Impad1 pct.1,0.391
same,Insig2 avg_logFC,0.67
same,Iqgap1 avg_logFC,0.4554
same,Iqgap1 pct.1,0.162
same,Itgb2 avg_logFC,0.2723
same,Itgb2 pct.1,0.105
same,Itih2 avg_logFC,0.5011
same,Ivns1abp A6logFC,0.3566
same,Jak1 avg_logFC,0.6039
same,Jmjd1c avg_logFC,0.6366
same,Kctd3 avg_logFC,0.2608
same,Kctd3 pct.1,0.239
same,Kdelr2 A6logFC,0.3977
same,Kdelr2 avg_logFC,0.3977
same,Kdelr2 pct.1,0.484
same,Kdm5a A6logFC,0.3514
same,Kdm5a avg_logFC,0.3514
same,Kdm5a pct.1,0.308
same,Khk avg_logFC,−0.4915
same,Khk pct.1,0.702
same,Kif1b avg_logFC,0.3718
same,Kif1b pct.1,0.527
same,Kif5b avg_logFC,0.5012
same,Kif5b pct.1,0.494
same,Kif21a A6logFC,0.4042
same,Klf3 A6logFC,0.2674
same,Klf3 avg_logFC,0.2674
same,Klf3 pct.1,0.301
same,Klf6 avg_logFC,0.7324
same,Klf15 avg_logFC,−0.4518
same,Klf15 pct.1,0.208
same,Kmo avg_logFC,−0.3844
same,Kmo pct.1,0.487
same,Krt8 avg_logFC,1.196
same,Krt18 avg_logFC,1.258
same,Lactb2 avg_logFC,−0.5965
same,Laptm5 avg_logFC,0.3382
same,Laptm5 pct.1,0.124
same,Lars2 avg_logFC,1.392
same,Lcn2 avg_logFC,0.4122
same,Lcn2 pct.1,0.301
same,Ldlr A6logFC,0.282
same,Ldlr avg_logFC,0.282
same,Ldlr pct.1,0.432
same,Lgals9 A6logFC,−0.27
same,Lgals9 avg_logFC,−0.27
same,Lgals9 pct.1,0.621
same,Lgmn avg_logFC,0.4846
same,Lgmn pct.1,0.246
same,Lifr avg_logFC,−0.6262
same,Lipc A6logFC,−0.2548
same,Lipc avg_logFC,−0.2548
same,Lipc pct.1,0.401
same,Litaf avg_logFC,0.3944
same,Litaf pct.1,0.451
same,Lmo4 avg_logFC,0.3205
same,Lmo4 pct.1,0.308
same,Lonp2 avg_logFC,−0.4674
same,Lonp2 pct.1,0.561
same,Lpgat1 avg_logFC,0.5952
same,Lpin2 avg_logFC,0.6867
same,Lrg1 avg_logFC,0.4908
same,Lrrc58 avg_logFC,1.001
same,Lrrc59 avg_logFC,0.3772
same,Lrrc59 pct.1,0.422
same,Lrrfip1 avg_logFC,0.4459
same,Lrrfip1 pct.1,0.37
same,Lsmd1 A6logFC,−0.3131
same,Lyst avg_logFC,0.4093
same,Lyst pct.1,0.31
same,Lyz2 avg_logFC,0.7322
same,Maff avg_logFC,0.3553
same,Maff pct.1,0.224
same,Magi3 A6logFC,0.27
same,Magi3 avg_logFC,0.27
same,Magi3 pct.1,0.303
same,Malat1 avg_logFC,0.9206
same,Malat1 pct.1,0.871
same,Man2a1 avg_logFC,0.4971
same,Map2k3 avg_logFC,0.4347
same,Map2k3 pct.1,0.427
same,Map3k2 A6logFC,0.2518
same,Map3k2 avg_logFC,0.2518
same,Map3k2 pct.1,0.265
same,Mapk6 A6logFC,0.2568
same,Mapk6 avg_logFC,0.2568
same,Mapk6 pct.1,0.303
same,Mapkapk2 A6logFC,0.3138
same,Mapkapk2 avg_logFC,0.3138
same,Mapkapk2 pct.1,0.396
same,Mat1a avg_logFC,0.7908
same,Mat2a avg_logFC,0.4826
same,Mat2a pct.1,0.487
same,Mbl1 avg_logFC,−0.713
same,Mbnl1 avg_logFC,0.4513
same,Mbnl1 pct.1,0.492
same,Mcee A6logFC,−0.3199
same,Mcl1 avg_logFC,0.5709
same,Mcl1 pct.1,0.573
same,Mcm10 avg_logFC,−0.4874
same,Mdn1 avg_logFC,0.318
same,Mdn1 pct.1,0.251

# Reference: patent publication US20230053540A1, “TREATMENT OF LIVER INJURY” (Massachusetts Institute of Technology, priority 2019, published 2023)
